Test system: 855422-203-R-J1-PDC complex spheroids, viability
Experiment: Anticancer human tumor 855422-203-R-J1-PDC patient-derived bladder carcinoma cell line growth inhibition [CLK]
Details: for IC50: curve of first compound; for viability, T/C: stronger effect = lower value
Method in brief: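 Multi-cell-type spheroids combined patient-derived tumor cells with HUVEC endothelial cells and human mesenchymal stem cells. Paired agents were dosed in half-log steps down from about clinical Cmax, or from 10 microM where Cmax was unknown.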

[1] = second compound 0.0316 µM, first compound 0.0316 µM
[2] = second compound 0.0316 µM, first compound 0.1 µM
[3] = second compound 0.0316 µM, first compound 0.316 µM
[4] = second compound 0.0316 µM, first compound 1 µM
[5] = second compound 0.0316 µM, first compound 3.16 µM
[6] = second compound 0.0316 µM, first compound 10 µM
[7] = second compound 0.1 µM, first compound 0.0316 µM
[8] = second compound 0.1 µM, first compound 0.1 µM
[9] = second compound 0.1 µM, first compound 0.316 µM
[10] = second compound 0.1 µM, first compound 1 µM
[11] = second compound 0.1 µM, first compound 3.16 µM
[12] = second compound 0.1 µM, first compound 10 µM
[13] = second compound 0.316 µM, first compound 0.0316 µM
[14] = second compound 0.316 µM, first compound 0.1 µM
[15] = second compound 0.316 µM, first compound 0.316 µM
[16] = second compound 0.316 µM, first compound 1 µM
[17] = second compound 0.316 µM, first compound 3.16 µM
[18] = second compound 0.316 µM, first compound 10 µM
[19] = second compound 1 µM, first compound 0.0316 µM
[20] = second compound 1 µM, first compound 0.1 µM
[21] = second compound 1 µM, first compound 0.316 µM
[22] = second compound 1 µM, first compound 1 µM
[23] = second compound 1 µM, first compound 3.16 µM
[24] = second compound 1 µM, first compound 10 µM
[25] = second compound 3.16 µM, first compound 0.0316 µM
[26] = second compound 3.16 µM, first compound 0.1 µM
[27] = second compound 3.16 µM, first compound 0.316 µM
[28] = second compound 3.16 µM, first compound 1 µM
[29] = second compound 3.16 µM, first compound 3.16 µM
[30] = second compound 3.16 µM, first compound 10 µM
[31] = second compound 10 µM, first compound 0.0316 µM
[32] = second compound 10 µM, first compound 0.1 µM
[33] = second compound 10 µM, first compound 0.316 µM
[34] = second compound 10 µM, first compound 1 µM
[35] = second compound 10 µM, first compound 3.16 µM
[36] = second compound 10 µM, first compound 10 µM
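Note: spheroids exposed to drugs for seven days before readout.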
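Throughout, for viability, T/C: 100% = DMSO vehicle control wells.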

In the case of `CC(=O)O[C@H]1C(=O)[C@@]2(C)[C@H]([C@H](OC(=O)c3ccccc3)[C@]3(O)C[C@H](OC(=O)[C@H](O)[C@@H](NC(=O)c4ccccc4)c4ccccc4)C(C)=C1C3(C)C)[C@]1(OC(C)=O)CO[C@@H]1C[C@@H]2O` + CNC(=O)c1ccc(Nc2nc(OC3CCCC3)c3c(-c4ccc5nc(C)oc5c4)c[nH]c3n2)c(OC)c1, the IC50 (second compound 0.0316 µM) is reported as under 31.6 nM, the IC50 (second compound 0.1 µM) is reported as under 31.6 nM and the IC50 (second compound 0.316 µM) is reported as under 31.6 nM. The IC50 (second compound 1 µM) was under 31.6 nM, the IC50 (second compound 3.16 µM) was under 31.6 nM and the IC50 (second compound 10 µM) was under 31.6 nM. It also gave a viability, T/C [1] of 8.98%, a viability, T/C [2] of 6.61% and a viability, T/C [3] of 7.27%. It also gave a viability, T/C [4] of 7.58%, a viability, T/C [5] of 8.71% and a viability, T/C [6] of 11.3%. For the same molecule, the viability, T/C [7] was 16.5%, the viability, T/C [8] was 11.2% and the viability, T/C [9] was 13.8%. The viability, T/C [10] was 11.9%, the viability, T/C [11] was 15% and the viability, T/C [12] was 25.5%. It also gave a viability, T/C [13] of 30.5%, a viability, T/C [14] of 28.8% and a viability, T/C [15] of 29.2%. For the same molecule, the viability, T/C [16] was 31.9%, the viability, T/C [17] was 34.4% and the viability, T/C [18] was 31.5%. For the same molecule, the viability, T/C [19] was 32%, the viability, T/C [20] was 25.3% and the viability, T/C [21] was 28.1%. The viability, T/C [22] was 35.5%, the viability, T/C [23] was 36.5% and the viability, T/C [24] was 27%. For the same molecule, the viability, T/C [25] was 28.6%, the viability, T/C [26] was 28.3% and the viability, T/C [27] was 21.7%. The viability, T/C [28] was 31.7%, the viability, T/C [29] was 31.8% and the viability, T/C [30] was 24.2%. The viability, T/C [31] was 23.4%, the viability, T/C [32] was 33.6% and the viability, T/C [33] was 25.5%. For the same molecule, the viability, T/C [34] was 24.9%, the viability, T/C [35] was 31.4% and the viability, T/C [36] was 26.3%.
In the case of `CCCS(=O)(=O)Nc1ccc(F)c(C(=O)c2c[nH]c3ncc(-c4ccc(Cl)cc4)cc23)c1F` + CNC(=O)c1ccc(Nc2nc(OC3CCCC3)c3c(-c4ccc5nc(C)oc5c4)c[nH]c3n2)c(OC)c1, the IC50 (second compound 0.0316 µM) is reported as 5680 nM, the IC50 (second compound 0.1 µM) is reported as 1030 nM and the IC50 (second compound 0.316 µM) is reported as under 31.6 nM. The IC50 (second compound 1 µM) was under 31.6 nM, the IC50 (second compound 3.16 µM) was under 31.6 nM and the IC50 (second compound 10 µM) was under 31.6 nM. It also gave a viability, T/C [1] of 90.8%, a viability, T/C [2] of 79.9% and a viability, T/C [3] of 112%. The viability, T/C [4] was 92.2%, the viability, T/C [5] was 114% and the viability, T/C [6] was 3.65%. The viability, T/C [7] was 50.6%, the viability, T/C [8] was 52.7% and the viability, T/C [9] was 48.5%. It also gave a viability, T/C [10] of 49.6%, a viability, T/C [11] of 46% and a viability, T/C [12] of 6.89%. The viability, T/C [13] was 23.8%, the viability, T/C [14] was 23.8% and the viability, T/C [15] was 19.8%. For the same molecule, the viability, T/C [16] was 19.9%, the viability, T/C [17] was 21.4% and the viability, T/C [18] was 5.35%. For the same molecule, the viability, T/C [19] was 17.7%, the viability, T/C [20] was 20.9% and the viability, T/C [21] was 17.9%. The viability, T/C [22] was 20.2%, the viability, T/C [23] was 16.9% and the viability, T/C [24] was 4.43%. The viability, T/C [25] was 22.2%, the viability, T/C [26] was 14.9% and the viability, T/C [27] was 18.7%. The viability, T/C [28] was 15.1%, the viability, T/C [29] was 19.5% and the viability, T/C [30] was 4.41%. For the same molecule, the viability, T/C [31] was 18.2%, the viability, T/C [32] was 19.6% and the viability, T/C [33] was 20%. The viability, T/C [34] was 17.6%, the viability, T/C [35] was 15.1% and the viability, T/C [36] was 5.26%.
`Nc1ccn(C2OC(CO)C(O)C2(F)F)c(=O)n1` (stereo not drawn) + CN1CCN(c2cc(C(=O)Nc3cc4cc(-c5cnn(C)c5)ccc4cn3)ccn2)CC1 showed an IC50 (second compound 0.0316 µM) of under 31.6 nM, an IC50 (second compound 0.1 µM) of under 31.6 nM and an IC50 (second compound 0.316 µM) of under 31.6 nM. For the same molecule, the IC50 (second compound 1 µM) was under 31.6 nM, the IC50 (second compound 3.16 µM) was under 31.6 nM and the IC50 (second compound 10 µM) was under 31.6 nM. It also gave a viability, T/C [1] of 27.6%, a viability, T/C [2] of 15.1% and a viability, T/C [3] of 15.8%. For the same molecule, the viability, T/C [4] was 11.4%, the viability, T/C [5] was 9.09% and the viability, T/C [6] was 6.12%. It also gave a viability, T/C [7] of 24.4%, a viability, T/C [8] of 15.4% and a viability, T/C [9] of 11.5%. It also gave a viability, T/C [10] of 11.9%, a viability, T/C [11] of 5.33% and a viability, T/C [12] of 4.86%. For the same molecule, the viability, T/C [13] was 4.07%, the viability, T/C [14] was 3.72% and the viability, T/C [15] was 4.47%. For the same molecule, the viability, T/C [16] was 2.24%, the viability, T/C [17] was 1.5% and the viability, T/C [18] was 0.93%. For the same molecule, the viability, T/C [19] was 1.32%, the viability, T/C [20] was 0.15% and the viability, T/C [21] was 2.17%. It also gave a viability, T/C [22] of 0.1%, a viability, T/C [23] of 0.13% and a viability, T/C [24] of 0.13%. It also gave a viability, T/C [25] of 0.98%, a viability, T/C [26] of 3.09% and a viability, T/C [27] of 0.39%. It also gave a viability, T/C [28] of 0.24%, a viability, T/C [29] of 1.1% and a viability, T/C [30] of 0.29%. It also gave a viability, T/C [31] of 0.28%, a viability, T/C [32] of 0.41% and a viability, T/C [33] of 0.24%. For the same molecule, the viability, T/C [34] was 0.83%, the viability, T/C [35] was 0.25% and the viability, T/C [36] was 0.23%.
For `NC(=O)C(=Cn1cnc(-c2cc(C(F)(F)F)cc(C(F)(F)F)c2)n1)c1cncnc1` + CN1CCN(c2cc(C(=O)Nc3cc4cc(-c5cnn(C)c5)ccc4cn3)ccn2)CC1, the IC50 (second compound 0.0316 µM) was 70.6 nM, the IC50 (second compound 0.1 µM) was 52.3 nM and the IC50 (second compound 0.316 µM) was under 9.49 nM. It also gave an IC50 (second compound 1 µM) of under 9.49 nM, an IC50 (second compound 3.16 µM) of under 9.49 nM and an IC50 (second compound 10 µM) of under 9.49 nM. It also gave a viability, T/C (second compound 0.0316 µM, first compound 0.00949 µM) of 137%, a viability, T/C (second compound 0.0316 µM, first compound 0.03 µM) of 122% and a viability, T/C (second compound 0.0316 µM, first compound 0.0949 µM) of 25.1%. The viability, T/C (second compound 0.0316 µM, first compound 0.3 µM) was 5.66%, the viability, T/C (second compound 0.0316 µM, first compound 0.949 µM) was 6% and the viability, T/C (second compound 0.0316 µM, first compound 3 µM) was 1.88%. The viability, T/C (second compound 0.1 µM, first compound 0.00949 µM) was 82.6%, the viability, T/C (second compound 0.1 µM, first compound 0.03 µM) was 90.1% and the viability, T/C (second compound 0.1 µM, first compound 0.0949 µM) was 11.2%. For the same molecule, the viability, T/C (second compound 0.1 µM, first compound 0.3 µM) was 2.07%, the viability, T/C (second compound 0.1 µM, first compound 0.949 µM) was 3.91% and the viability, T/C (second compound 0.1 µM, first compound 3 µM) was 0.25%. It also gave a viability, T/C (second compound 0.316 µM, first compound 0.00949 µM) of 2.6%, a viability, T/C (second compound 0.316 µM, first compound 0.03 µM) of 1.37% and a viability, T/C (second compound 0.316 µM, first compound 0.0949 µM) of 1.48%. It also gave a viability, T/C (second compound 0.316 µM, first compound 0.3 µM) of 0.21%, a viability, T/C (second compound 0.316 µM, first compound 0.949 µM) of 0.13% and a viability, T/C (second compound 0.316 µM, first compound 3 µM) of 0.05%. It also gave a viability, T/C (second compound 1 µM, first compound 0.00949 µM) of 0.15%, a viability, T/C (second compound 1 µM, first compound 0.03 µM) of 0.76% and a viability, T/C (second compound 1 µM, first compound 0.0949 µM) of 0.42%. The viability, T/C (second compound 1 µM, first compound 0.3 µM) was 0.21%, the viability, T/C (second compound 1 µM, first compound 0.949 µM) was 0.71% and the viability, T/C (second compound 1 µM, first compound 3 µM) was 0.05%. It also gave a viability, T/C (second compound 3.16 µM, first compound 0.00949 µM) of 0.27%, a viability, T/C (second compound 3.16 µM, first compound 0.03 µM) of 0.21% and a viability, T/C (second compound 3.16 µM, first compound 0.0949 µM) of 0.42%. It also gave a viability, T/C (second compound 3.16 µM, first compound 0.3 µM) of 0.13%, a viability, T/C (second compound 3.16 µM, first compound 0.949 µM) of 0.22% and a viability, T/C (second compound 3.16 µM, first compound 3 µM) of 0.09%. The viability, T/C (second compound 10 µM, first compound 0.00949 µM) was 0.14%, the viability, T/C (second compound 10 µM, first compound 0.03 µM) was 0.09% and the viability, T/C (second compound 10 µM, first compound 0.0949 µM) was 0.34%. It also gave a viability, T/C (second compound 10 µM, first compound 0.3 µM) of 0.23%, a viability, T/C (second compound 10 µM, first compound 0.949 µM) of 0.6% and a viability, T/C (second compound 10 µM, first compound 3 µM) of 0.2%.
